# According to ChEMBL document CHEMBL1649554, “Specific therapeutic schemes of omeprazole affect the orientation of Helicobacter pylori” (Antimicrob Agents Chemother, 2009):
# Active and inactive are the calls of the source. The rule behind the calls is not given here.
# Key:
# Helicobacter pylori [1] = assay: Antibacterial activity against Helicobacter pylori SS1 infected in Mongolian gerbils assessed as bacterial density in mucus in central mucus layer at 100 uM, ip administered as single dose through dialysis measured after 90 mins post last dose; type: functional
# Helicobacter pylori [2] = assay: Antibacterial activity against Helicobacter pylori SS1 infected in Mongolian gerbils assessed as bacterial density in mucus in 15 to 25 um above the Juxtamucosal layer at 100 uM, ip administered as single dose through dialysis measured after 90 mins post last dose; type: functional
# Helicobacter pylori [3] = assay: Antibacterial activity against Helicobacter pylori SS1 infected in Mongolian gerbils assessed as bacterial orientation in luminal mucus layer at 0.25 mg, ip administered as two subsequent doses in 8 hrs dosing interval; type: functional, organism-based
# Helicobacter pylori [4] = assay: Antibacterial activity against Helicobacter pylori SS1 infected in Mongolian gerbils assessed as bacterial density in mucus in 0 to 15 um above the Juxtamucosal layer at 100 uM, ip administered as single dose through dialysis measured after 90 mins post last dose; type: functional
# Helicobacter pylori [5] = assay: Antibacterial activity against Helicobacter pylori SS1 infected in Mongolian gerbils assessed as bacterial orientation in central layer at 0.25 mg, ip administered as two subsequent doses in 8 hrs dosing interval; type: functional, organism-based
# Helicobacter pylori [6] = assay: Antibacterial activity against Helicobacter pylori SS1 infected in Mongolian gerbils assessed as bacterial orientation in 15 to 25 um above the Juxtamucosal layer at 0.25 mg, ip administered as two subsequent doses in 8 hrs dosing interval; type: functional, organism-based
# Helicobacter pylori [7] = assay: Antibacterial activity against Helicobacter pylori SS1 infected in Mongolian gerbils assessed as bacterial orientation in 0 to 15 um above the Juxtamucosal layer at 0.25 mg, ip administered as two subsequent doses in 8 hrs dosing interval; type: functional, organism-based
# Helicobacter pylori [8] = assay: Antibacterial activity against Helicobacter pylori SS1 infected in Mongolian gerbils assessed as bacterial orientation in luminal mucus layer at 35 ug/ml administered as single dose in 8 hrs dosing interval; type: functional, organism-based
# Helicobacter pylori [9] = assay: Antibacterial activity against Helicobacter pylori SS1 infected in Mongolian gerbils assessed as bacterial orientation in central layer at 35 ug/ml administered as single dose in 8 hrs dosing interval; type: functional, organism-based
# Helicobacter pylori [10] = assay: Antibacterial activity against Helicobacter pylori SS1 infected in Mongolian gerbils assessed as bacterial orientation in 15 to 25 um above the Juxtamucosal layer at 35 ug/ml administered as single dose in 8 hrs dosing interval; type: functional, organism-based
# Helicobacter pylori [11] = assay: Antibacterial activity against Helicobacter pylori SS1 infected in Mongolian gerbils assessed as bacterial orientation in 0 to 15 um above the Juxtamucosal layer at 35 ug/ml administered as single dose in 8 hrs dosing interval; type: functional, organism-based
# [12] = Cmax in Mongolian gerbils plasma at 0.5 mg, ip; type: ADME, organism-based, Meriones unguiculatus; design: dose 0.5 mg, route intraperitoneal; conditions: gerbil
# Helicobacter pylori [13] = assay: (§1) Antibacterial activity against Helicobacter pylori SS1 infected in Mongolian gerbils assessed as bacterial density in mucus in luminal mucus layer at 0.25 mg, ip administered as two doses in 24 hrs dosing interval measured after 90 mins post last dose (reference value: 60+/-50 bacteria per nl of mucus); type: functional
# Helicobacter pylori [14] = assay: as §1, with “ip followed by second dose” for “ip”, “solvent” for “two doses”; type: functional
# Helicobacter pylori [15] = assay: as §1, with “8” for “24”; type: functional
# Helicobacter pylori [16] = assay: as §1, with “doses of solvent” for “doses”; type: functional
# Helicobacter pylori [17] = assay: (§2) Antibacterial activity against Helicobacter pylori SS1 infected in Mongolian gerbils assessed as bacterial density in mucus in luminal mucus layer at 20 uM, ip administered as single dose through dialysis measured after 90 mins post last dose (reference value: 60+/-50 bacteria per nl of mucus); type: functional
# Helicobacter pylori [18] = assay: as §1, with “central” for “luminal”, “90+/-60” for “60+/-50”; type: functional
# Helicobacter pylori [19] = assay: as §1, with “central” for “luminal”, “ip followed by second dose” for “ip”, “solvent” for “two doses”, “90+/-60” for “60+/-50”; type: functional
# Helicobacter pylori [20] = assay: as §1, with “central” for “luminal”, “8” for “24”, “90+/-60” for “60+/-50”; type: functional
# Helicobacter pylori [21] = assay: as §1, with “central” for “luminal”, “doses of solvent” for “doses”, “90+/-60” for “60+/-50”; type: functional
# Helicobacter pylori [22] = assay: Antibacterial activity against Helicobacter pylori SS1 infected in Mongolian gerbils assessed as bacterial density in mucus in central mucus layer at 20 uM, ip administered as single dose through dialysis measured after 90 mins post last dose (reference value: 90+/-60 bacteria per nl of mucus); type: functional
# Helicobacter pylori [23] = assay: Antibacterial activity against Helicobacter pylori SS1 infected in Mongolian gerbils assessed as decrease in bacterial density in mucus in 15 to 25 um above the Juxtamucosal layer at 0.25 mg, ip administered as single dose for 5 days measured after 90 mins post last dose; type: functional; design: scale not given: the % may be the effect or the level left
# Helicobacter pylori [24] = assay: as §1, with “15 to 25 um above the Juxtamucosal” for “luminal mucus”, “2280+/-430” for “60+/-50”; type: functional
# Helicobacter pylori [25] = assay: as §1, with “15 to 25 um above the Juxtamucosal” for “luminal mucus”, “ip followed by second dose” for “ip”, “solvent” for “two doses”, “2280+/-430” for “60+/-50”; type: functional
# Helicobacter pylori [26] = assay: as §1, with “15 to 25 um above the Juxtamucosal” for “luminal mucus”, “8” for “24”, “2280+/-430” for “60+/-50”; type: functional
# Helicobacter pylori [27] = assay: as §1, with “15 to 25 um above the Juxtamucosal” for “luminal mucus”, “doses of solvent” for “doses”, “2280+/-430” for “60+/-50”; type: functional
# Helicobacter pylori [28] = assay: as §2, with “15 to 25 um above the Juxtamucosal” for “luminal mucus”, “2280+/-430” for “60+/-50”; type: functional
structure (smiles),measurement,setting,value
COc1ccc2[nH]c([S+]([O-])Cc3ncc(C)c(OC)c3C)nc2c1 (stereo not drawn) [OMEPRAZOLE],Activity,Helicobacter pylori [1],60 nL⁻¹
same,Activity,Helicobacter pylori [2],330 nL⁻¹
same,Activity,Helicobacter pylori [3],inactive
same,Activity,Helicobacter pylori [4],570 nL⁻¹
same,Activity,Helicobacter pylori [5],inactive
same,Activity,Helicobacter pylori [6],inactive
same,Activity,Helicobacter pylori [7],inactive
same,Activity,Helicobacter pylori [8],inactive
same,Activity,Helicobacter pylori [9],inactive
same,Activity,Helicobacter pylori [10],inactive
same,Activity,Helicobacter pylori [11],inactive
same,Cmax,[12],20 µM
same,Activity,Helicobacter pylori [13],120 nL⁻¹
same,Activity,Helicobacter pylori [14],50 nL⁻¹
same,Activity,Helicobacter pylori [15],30 nL⁻¹
same,Activity,Helicobacter pylori [16],70 nL⁻¹
same,Activity,Helicobacter pylori [17],50 nL⁻¹
same,Activity,Helicobacter pylori [18],300 nL⁻¹
same,Activity,Helicobacter pylori [19],140 nL⁻¹
same,Activity,Helicobacter pylori [20],30 nL⁻¹
same,Activity,Helicobacter pylori [21],40 nL⁻¹
same,Activity,Helicobacter pylori [22],70 nL⁻¹
same,Activity,Helicobacter pylori [23],5%
same,Activity,Helicobacter pylori [24],2230 nL⁻¹
same,Activity,Helicobacter pylori [25],2030 nL⁻¹
same,Activity,Helicobacter pylori [26],1800 nL⁻¹
same,Activity,Helicobacter pylori [27],2260 nL⁻¹
same,Activity,Helicobacter pylori [28],2010 nL⁻¹
